{"source": "patent US6630179B1", "about": "(priority 1998, dated 2003)", "key": {"[1]": {"system": "HIV-1 IIIB laboratory strain", "experiment": "HIV-1 IIIB viral growth, different research group, compared to AZT", "format": "cell-based", "conditions": "HIV-1 IIIB (first-named isolate)"}, "HIV-1 D isolate": {"system": "HIV-1 D isolate", "experiment": "HIV-1 D isolate viral growth, different research group, compared to AZT", "format": "cell-based", "conditions": "HIV-1 D isolate (second-named isolate)"}, "Newcastle disease": {"system": "Newcastle disease", "format": "in vivo, Ross 308 broiler chickens", "conditions": "Baytril 10 mg/kg/day for 3 days in first week, one day at 21 days of age; day 28 and 42"}, "[2]": {"experiment": "Study 1511: Subchronic oral toxicity in rats (90 day study)", "conditions": "rat, in vivo"}, "[3]": {"conditions": "dog, in vivo", "description": "All animals were euthanased after the 90-day period and a comprehensive post mortem examination, as well as a histopathological evaluation of an extensive list of organs, was performed."}, "[4]": {"conditions": "rat, in vivo"}}, "note": "Where two headings read alike, the source gives them in different places.", "data": [{"compound": "Cc1cn([C@H]2C[C@H](N=[N+]=[N-])[C@@H](CO)O2)c(=O)[nH]c1=O", "note": "[AZT]", "values": [{"measurement": "AZT concentration giving the same level of viral growth as oxihumate 25 μg/ml", "setting": "[1]", "value": 0.3, "unit": "µM"}, {"measurement": "AZT concentration giving the same level of viral growth as oxihumate 25 μg/ml", "setting": "HIV-1 D isolate", "value": 12.5, "unit": "µM"}]}, {"compound": "CCN1CCN(c2cc3c(cc2F)c(=O)c(C(=O)O)cn3C2CC2)CC1", "note": "[Baytril]", "values": [{"measurement": "titers against Newcastle disease", "setting": "Newcastle disease", "value": "two to four fold increase"}]}, {"compound": "Potassium oxihumate", "values": [{"measurement": "end body mass of male treated animals", "setting": "[2]", "value": "statistically significant decrease"}, {"measurement": "circulating lymphocytes", "setting": "[2]; po", "value": "decline"}, {"measurement": "clinical signs", "setting": "[2]; po", "value": "No abnormal clinical signs were observed"}, {"measurement": "pathology and organ masses compared to the control animals", "setting": "[2]; po", "value": "no notable differences"}, {"measurement": "serum globulins", "setting": "[2]; po", "value": "consistent increase"}, {"measurement": "serum inorganic phosphate", "setting": "[2]; po", "value": "decrease"}, {"measurement": "size and haemoglobinization of the red blood cells", "setting": "[2]; po", "value": "drug-related increase"}, {"measurement": "blood chemistry and body masses", "setting": "[2]; po, 1000 mg/kg/day", "value": "Slight alterations in blood chemistry and slight decreases in body masses"}, {"measurement": "overall toxicity assessment", "setting": "[3]", "value": "low toxicity"}, {"measurement": "post mortem and histopathological evaluation", "setting": "[3]", "value": "did not induce any measurable pathology at the macroscopic and microscopic level"}, {"measurement": "clinical signs of toxicity", "setting": "[3]; 1200 mg/kg/day", "value": "did not induce marked clinical signs of toxicity"}, {"measurement": "clinical pathological parameters", "setting": "[3]; po", "value": "some, but usually small, effects"}, {"measurement": "blood chemistry and body masses", "setting": "[3]; po, 1200 mg/kg/day", "value": "Slight alterations in blood chemistry and slight decrease in body masses"}, {"measurement": "acid-base status", "setting": "[4]", "value": "very low grade acid-base disturbance"}, {"measurement": "chemical pathology parameters", "setting": "[4]", "value": "altered some of the chemical pathology parameters"}, {"measurement": "overall toxicity assessment", "setting": "[4]; 1000 mg/kg/day", "value": "does not appear to have any serious deleterious effect"}, {"measurement": "pathology, body masses and organ masses compared to the control animals", "setting": "[4]; 1000 mg/kg/day", "value": "no differences"}]}]}
